# Assay results from paper PMC7034129, “C-2 phenyl replacements to obtain potent quinoline-based Staphylococcus aureus NorA inhibitors” (Journal of Enzyme Inhibition and Medicinal Chemistry, 2020).
# Where two headings read alike, the source gives them in different places. Marks after values point to notes of the source that are not given here.
# What was measured:
# [1] = test system: SA-1199B; experiment: Membrane potential (polarisation) assays, BacLight kit, DiOC2(3); assay type: cell-based, Staphylococcus aureus; conditions: 30 min; for depolarised S. aureus membrane: 10 µg/mL
# Procedure: Membrane potential assays were carried out by measuring the effect of 1 and 37a on the membrane potential using the BacLight Bacterial Membrane Potential Kit (Molecular Probes, Life Technologies) according to the manufacturer’s instructions. Briefly, SA-1199B was grown in MHB at 37 °C until reaching an OD600 of 0.6. Bacterial cells were then washed in PBS and diluted to 1 × 10^6 CFU/mL with filtered PBS (filter 0.22 µm) in flow cytometry tubes. Ten microliters of 3 mM 3,3-diethyloxacarbocyanine iodide (DiOC2(3) in DMSO) was added to each tube (final concentration 30 µM) and mixed. Then, 1 or 37a from a stock solution in DMSO (10 mg/mL) was added to reach final concentrations of 1, 5, and 10 µg/mL. As positive control, 10 µL of 500 µM carbonyl cyanide m-chlorophenylhydrazone (CCCP, final concentration 5 µM) was used to eradicate the proton gradient by eliminating the membrane potential. The samples were analysed after 30 min by measuring the fluorescence using a cytometer Attune NxT (ThermoFisher Scientific) with a laser emitting at 488 nm and collecting in the green and red channels. The red to green fluorescence ratio was determined and normalised against the emission from the DiOC2(3) blank tube having 1 ml of the bacterial suspension and a final concentration of DiOC2(3) of 30 µM. The results are presented as the percentage of depolarised membranes compared with the drug-free control.
# Since efflux pumps need a proton gradient along the bacterial membrane, its modification/disruption can lead to an efflux inhibition. However, this effect cannot be related to a specific EPI activity; on the contrary, it relies on a non-specific interruption of the energy source (protons) that efflux pumps use to extrude their substrates by an antiport mechanism. A typical example of a compound inhibiting efflux pumps activity by this non-specific mechanism is represented by carbonyl cyanide m-chlorophenyl hydrazone (CCCP). […] Membrane polarisation was assessed by cytofluorimeter analysis using the fluorescent probe 3,3-diethyloxacarbocyanine iodide (DiOC2(3)) as its distribution is proton gradient-sensitive.
# [2] = test system: S. aureus SA-1199B; assay type: cell-based, Staphylococcus aureus; conditions: for compound concentration reducing the CPX MIC by 4-fold: chequerboard with CPX; for synergistic effect with CPX: compound concentration below 25 µg/mL
# Procedure: (§1) MICs assays were performed using broth microdilution method in 96 wells-microtiter plates, following the CLSI guidelines.
# (§2) Chequerboard assays and time-kill curves were performed as previously described.
# [3] = parameters: method as in PMID 30067360; conditions: in silico and in vitro, mouse liver microsomes 2 h; cited from earlier work
# [4] = test system: SA-1199B; parameters: method as in PMID 30067360; conditions: as previously reported; cited from earlier work
# [5] = test system: human leukemic monocyte cell line (THP-1); experiment: Cell viability assay (ATP bioluminescence); conditions: ratio between CC50 (THP-1) and minimum EPI concentration able to reduce by 4-fold CPX MIC
# Procedure: (§3) THP-1 cells were grown in RPMI 1640 supplemented with 10% heat-inactivated foetal calf serum, 10,000 units of penicillin, and 10 µg of streptomycin/mL overnight to confluence. […] Cell viability was then evaluated using an ATP bioluminescence kit (Via Light kit; Cambrex). Results are expressed as 50% cytotoxic concentration (CC50). The CC50 was defined as the concentration required to reduce the cell number by 50% compared to that for the untreated controls. Each concentration was tested in triplicate.
# [6] = test system: human leukemic monocyte cell line (THP-1); parameters: method as in PMID 30067360; conditions: THP-1 cells; cited from earlier work
# [7] = test system: S. aureus strain SA-1199B (norA+/GrlA mutation); experiment: Synergistic assays: compounds at 25 µg/mL with scalar concentrations of CPX; assay type: cell-based, Staphylococcus aureus; conditions: compound at 25 µg/mL
# Procedure: as §1
# (data not shown). […] Worthy of note, among the five active compounds, three were thiophene derivatives (35b, 36b and 37a) displaying their activity regardless of the position of the sulphur atom on the thiophene ring.
# [8] = target: T1, NorA efflux pump (Staphylococcus aureus, UniProt P0A0J7); experiment: EtBr efflux assays; assay type: cell-based; conditions: read-out: EtBr efflux inhibition
# T1 construct: monitoring bacterial fluorescence of SA-1199B, overexpressing norA gene; endogenous in cells; host or cells: Staphylococcus aureus SA-1199B (norA+/GrlA mutation)
# Procedure: The loss of EtBr from S. aureus SA-1199B was determined fluorometrically as previously described. The effect of various concentrations of tested compounds on the EtBr efflux of SA-1199B was compared to that in their absence, allowing the calculation of the percentage reduction in efflux.
# Since EtBr is a known NorA substrate resulting fluorescent only when inside bacterial cells, monitoring bacterial fluorescence of SA-1199B, overexpressing norA gene, through a fluorimeter is a fast method to indirectly evaluate NorA inhibition. […] Indeed, we commonly consider as active NorA EPIs those compounds having an EtBr efflux inhibition ≥70%[17]^,[18].
# [9] = Haemolysis assays; assay type: cell-based
# Procedure: Haemolysis assays were performed as previously described.
# In order to evaluate the toxic effects of the derivative 37a, haemolysis assays were performed at scalar compound concentrations in comparison with the starting hit 1 (Figure 4).
# [10] = test system: S. aureus strain SA-1199 (norA wild-type); experiment: Synergistic assay with CPX against norA wild-type strain; assay type: cell-based, Staphylococcus aureus; conditions: compound at 25 µg/mL, scalar CPX
# Procedure: as §1
# [11] = test system: SA-1199B; experiment: MIC evaluation of compound alone (broth microdilution); assay type: cell-based; conditions: Staphylococcus aureus, read-out: antibacterial activity alone (MIC)
# Procedure: as §1
# The sum of both FIC values led to a FIC index (FICI) < 0.27 showing a significant synergistic effect as widely recognised for FICI values <0.5[40].
# [12] = Cell viability assay (ATP bioluminescence); conditions: human
# Procedure: as §3
# [13] = test system: SA-1199B; experiment: Time-kill curves in combination with CPX; assay type: cell-based, Staphylococcus aureus; conditions: 24 h
# Procedure: as §2
# T1 sequence (P0A0J7 whole entry): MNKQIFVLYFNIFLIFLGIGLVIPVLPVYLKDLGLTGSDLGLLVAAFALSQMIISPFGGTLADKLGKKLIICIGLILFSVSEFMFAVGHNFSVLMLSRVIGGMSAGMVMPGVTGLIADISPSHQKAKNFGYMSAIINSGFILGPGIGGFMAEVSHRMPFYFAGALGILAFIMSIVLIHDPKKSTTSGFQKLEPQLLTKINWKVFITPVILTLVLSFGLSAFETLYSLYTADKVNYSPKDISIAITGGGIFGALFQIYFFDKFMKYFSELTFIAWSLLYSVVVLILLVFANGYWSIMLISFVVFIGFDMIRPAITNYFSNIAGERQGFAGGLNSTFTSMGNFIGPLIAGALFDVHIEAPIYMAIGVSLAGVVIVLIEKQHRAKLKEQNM
structure (smiles),measurement,setting,value
CCN(CC)CCOc1cc(-c2cccs2)nc2ccccc12,melting point,,84 to 86 °C
CCN(CC)CCOc1cc(-c2ccsc2)nc2ccccc12,melting point,,66 to 67 °C
Clc1ccc(-c2cc(OCCN3CCCCC3)c3ccccc3n2)s1,melting point,,99 to 101 °C
"CCCOc1ccc(-c2cc(OCCN(CC)CC)c3ccccc3n2)cc1 [Compound 1, reference compound]",depolarised bacterial membrane,[1]; 1 µg/mL,retained a significant depolarising effect
same,depolarised bacterial membrane,[1]; 5 µg/mL,retained a significant depolarising effect
same,depolarised S. aureus membrane,[1],> 50%
CCCOc1ccc(-c2cc(OCCN3CCCCC3)c3cc(OC)ccc3n2)cc1 [Compound 2],CPX MIC reduction,[2]; compound at 0.39 µg/mL,2 fold
same,metabolic stability,[3],good metabolic stability
same,depolarised bacterial membrane,[4],about 20%
same,"SI, selectivity index",[5],>128
same,CC50,[6],>100^b µg/mL
"CCCOc1ccc(-c2cc(OCCN(CC)CC)c3ccccc3n2)nc1.Cl [Compound 30a, N,N-diethyl-2-{[2–(5-propoxypyridin-2-yl)quinolin-4-yl]oxy}ethanamine hydrochloride]",compound concentration reducing the CPX MIC by 4-fold,[2],6.25 µg/mL
same,melting point,,212 to 213 °C
same,reduction of the CPX MIC,[7],4 fold
"CCCOc1ccc(-c2cc(OCCN3CCCCC3)c3ccccc3n2)nc1 [Compound 30b, 4–(2-Piperidin-1-ylethoxy)-2–(5-propoxypyridin-2-yl)quinoline]",compound concentration reducing the CPX MIC by 4-fold,[2],12.5 µg/mL
same,melting point,,90 to 91 °C
same,reduction of the CPX MIC,[7],4 fold
"CCCOc1ccc(-c2cc(OCCN(CC)CC)c3ccccc3n2)cn1.Cl [Compound 31a, N,N-diethyl-2-{[2–(6-propoxypyridin-3-yl)quinolin-4-yl]oxy}ethanamine hydrochloride]",melting point,,188 to 190 °C
same,synergistic effect / EPI activity with CPX,[7],lost EPI activity
"CCCOc1ccc(-c2cc(OCCN3CCCCC3)c3ccccc3n2)cn1.Cl [Compound 31b, 4–(2-Piperidin-1-ylethoxy)-2–(6-propoxypyridin-3-yl)quinoline hydrochloride]",melting point,,223 to 224 °C
same,synergistic effect / EPI activity with CPX,[7],lost EPI activity
"CCN(CC)CCOc1cc(-c2ccccn2)nc2ccccc12.Cl [Compound 32a, N,N-diethyl-2-[(2-pyridin-2-ylquinolin-4-yl)oxy]ethanamine hydrochloride]",melting point,,173 to 174 °C
same,synergistic effect / EPI activity with CPX,[7],lost EPI activity
"c1ccc(-c2cc(OCCN3CCCCC3)c3ccccc3n2)nc1 [Compound 32b, 4–(2-Piperidin-1-ylethoxy)-2-pyridin-2-ylquinoline]",melting point,,77 to 79.5 °C
same,synergistic effect / EPI activity with CPX,[7],lost EPI activity
"CCN(CC)CCOc1cc(-c2cccnc2)nc2ccccc12.Cl [Compound 33a, N,N-diethyl-2-[(2-pyridin-3-ylquinolin-4-yl)oxy]ethanamine hydrochloride]",melting point,,181 to 182 °C
same,synergistic effect / EPI activity with CPX,[7],lost EPI activity
"c1cncc(-c2cc(OCCN3CCCCC3)c3ccccc3n2)c1 [Compound 33b, 4–(2-Piperidin-1-ylethoxy)-2-pyridin-3-ylquinoline]",melting point,,101.5 to 102.5 °C
same,synergistic effect / EPI activity with CPX,[7],lost EPI activity
"CCN(CC)CCOc1cc(-c2ccncc2)nc2ccccc12 [Compound 34a, N,N-diethyl-2-[(2-pyridin-4-ylquinolin-4-yl)oxy]ethanamine]",melting point,,73.5 to 74 °C
same,synergistic effect / EPI activity with CPX,[7],lost EPI activity
"Cl.c1ccc2c(OCCN3CCCCC3)cc(-c3ccncc3)nc2c1 [Compound 34b, 4–(2-Piperidin-1-ylethoxy)-2-pyridin-4-ylquinoline hydrochloride]",melting point,,183.5 to 185 °C
same,synergistic effect / EPI activity with CPX,[7],lost EPI activity
"Cl.c1csc(-c2cc(OCCN3CCCCC3)c3ccccc3n2)c1 [Compound 35b, 4–(2-piperidin-1-ylethoxy)-2–(2-thienyl)quinoline hydrochloride]",synergistic effect with CPX,[2],did not retain any synergistic effect
same,melting point,,208 to 209.5 °C
same,reduction of the CPX MIC,[7],4 fold
"c1ccc2c(OCCN3CCCCC3)cc(-c3ccsc3)nc2c1 [Compound 36b, 4–(2-Piperidin-1-ylethoxy)-2–(3-thienyl)quinoline]",synergistic effect with CPX,[2],did not retain any synergistic effect
same,melting point,,109.5 to 111 °C
same,reduction of the CPX MIC,[7],4 fold
"CCN(CC)CCOc1cc(-c2ccc(Cl)s2)nc2ccccc12.Cl [Compound 37a, (2-{[2–(5-Chloro-2-thienyl)quinolin-4-yl]oxy}ethyl)diethylamine hydrochloride]","concentration reducing CPX MIC, fold lower than own MIC",[2],≥ 64 fold
same,FIC (MIC in combination/MIC alone),[2]; 37a + CPX,< 0.0156
same,FIC index (FICI),[2]; 37a + CPX,< 0.27
same,compound concentration reducing the CPX MIC by 4-fold,[2],0.39 µg/mL
same,CPX MIC in combination with compound,[2]; with 37a,2.5 µg/mL
same,inhibition at 50 µM,[8],74.3 ± 3.5%
same,melting point,,189 to 191 °C
same,haemolytic effect,[9]; 20 µg/mL,about 10%
same,haemolytic effect relative to starting hit 1,[9]; 20 µg/mL,3 fold
same,haemolytic activity,[9]; concentrations ≤ 5 µg/mL,below 2%
same,synergistic effect with CPX,[10],did not exhibit any significant synergistic effect
same,MIC,[11],> 25 µg/mL
same,reduction of the CPX MIC,[7],32 fold
same,"SI, selectivity index",[5],16.2
same,CC50 at 24 h,[12],6.33 µg/mL
same,bactericidal activity of combination (time-kill),[13]; 37a at 3.13 and 6.25 µg/mL + CPX at its MIC,strongly significant and definitely higher bactericidal activity than that shown by CPX alone
same,bactericidal effect of combination (time-kill),[13]; 37a at 3.13 and 6.25 µg/mL + CPX at ¼ MIC,the same bactericidal effect as CPX tested at its MIC
same,depolarised bacterial membrane,[1]; 1 µg/mL,about 20%
same,depolarised bacterial membrane,[1]; 5 µg/mL,about 20%
same,depolarised S. aureus membrane,[1],> 50%
